Data taken from patent publication US8785614B2, “Aberrantly methylated genes in pancreatic cancer” (The Johns Hopkins University, priority 2003, dated 2014).
Where two headings read alike, the source gives them in different places.

System: four pancreatic cancer cell lines (AsPC1, Hs766T, MiaPaCa2, Panc1)
Type: cell-based, human
Excerpt: These include a large panel of novel targets for silencing by histone deacetylation including several known tumor suppressor genes or cell cycle-regulatory genes (ING1, p57KIP2, CHES1, CHFR, GADD45B, and others).

With `CC(/C=C/C(=O)NO)=C\[C@@H](C)C(=O)c1ccc(N(C)C)cc1` [TSA, trichostatin A] the “changes in phenotypes during the treatment period” value was “did not result in apparent changes in their phenotypes”, the “Induced by TSA alone?” value (ANGPT2) was “No” and the “Induced by TSA alone?” value (BARD1) was “No”. For the same molecule, the “Induced by TSA alone?” value (BIK) was “Yes”, the “Induced by TSA alone?” value (BNIP3) was “Yes” and the “Induced by TSA alone?” value (BNIP3 (Table 3)) was “Yes”. For the same molecule, the “Induced by TSA alone?” value (BST2) was “No”, the “Induced by TSA alone?” value (BST2 (Table 3)) was “No” and the “Induced by TSA alone?” value (CACNA1G) was “Yes”. For the same molecule, the “Induced by TSA alone?” value (CASP5) was “No”, the “Induced by TSA alone?” value (CCNA1) was “No” and the “Induced by TSA alone?” value (CCNE2) was “No”. The “Induced by TSA alone?” value (CDC25A) was “No”, the “Induced by TSA alone?” value (CDH3) was “No” and the “Induced by TSA alone?” value (CDKN1A (p21)) was “No”. For the same molecule, the “Induced by TSA alone?” value (CDKN1C) was “Yes”, the “Induced by TSA alone?” value (CDKN2A (p16)) was “No” and the “Induced by TSA alone?” value (CLDN5) was “No”. The “Induced by TSA alone?” value (CLDN7) was “No”, the “Induced by TSA alone?” value (CRIP 1) was “Yes” and the “Induced by TSA alone?” value (CRLF1) was “Yes”. For the same molecule, the “Induced by TSA alone?” value (CSF1) was “Yes”, the “Induced by TSA alone?” value (CSF3) was “No” and the “Induced by TSA alone?” value (Cdc42 effector protein 2) was “No”. For the same molecule, the “Induced by TSA alone?” value (DAPK2) was “No”, the “Induced by TSA alone?” value (DAZL) was “Yes” and the “Induced by TSA alone?” value (DEAD box RNA helicase (VASA)) was “No”. For the same molecule, the “Induced by TSA alone?” value (DR3) was “No”, the “Induced by TSA alone?” value (FOXE1) was “No” and the “Induced by TSA alone?” value (GAGE1) was “Yes”. For the same molecule, the “Induced by TSA alone?” value (GAGE2) was “Yes”, the “Induced by TSA alone?” value (GAGE3) was “Yes” and the “Induced by TSA alone?” value (GAGE4) was “Yes”. For the same molecule, the “Induced by TSA alone?” value (GAGE6) was “Yes”, the “Induced by TSA alone?” value (GAGE7) was “Yes” and the “Induced by TSA alone?” value (GAGE7B) was “Yes”. The “Induced by TSA alone?” value (GAS1) was “No”, the “Induced by TSA alone?” value (HOXA1) was “No” and the “Induced by TSA alone?” value (HSPA1A) was “Yes”. The “Induced by TSA alone?” value (IGF2) was “No”, the “Induced by TSA alone?” value (IL1R1) was “No” and the “Induced by TSA alone?” value (ISG20) was “No”. The “Induced by TSA alone?” value (ITM3) was “Yes”, the “Induced by TSA alone?” value (JPH3) was “No” and the “Induced by TSA alone?” value (KLK10) was “No”. For the same molecule, the “Induced by TSA alone?” value (KRT17) was “No”, the “Induced by TSA alone?” value (LDOC1) was “No” and the “Induced by TSA alone?” value (LHX1) was “No”. The “Induced by TSA alone?” value (LHX2) was “No”, the “Induced by TSA alone?” value (LIPC) was “No” and the “Induced by TSA alone?” value (MAGE1) was “Yes”. For the same molecule, the “Induced by TSA alone?” value (MAGEC1) was “Yes”, the “Induced by TSA alone?” value (MATN1) was “Yes” and the “Induced by TSA alone?” value (MLH1) was “Yes”. The “Induced by TSA alone?” value (NEFH) was “Yes”, the “Induced by TSA alone?” value (NK4) was “Yes” and the “Induced by TSA alone?” value (NPTX2) was “Yes”. For the same molecule, the “Induced by TSA alone?” value (PAX6) was “No”, the “Induced by TSA alone?” value (PAX6 (Table 3)) was “No” and the “Induced by TSA alone?” value (PDYN) was “No”. For the same molecule, the “Induced by TSA alone?” value (PIG11 (Table 3)) was “No”, the “Induced by TSA alone?” value (PLAT) was “No” and the “Induced by TSA alone?” value (PLEK2) was “No”. For the same molecule, the “Induced by TSA alone?” value (PRG1) was “Yes”, the “Induced by TSA alone?” value (S100A2) was “No” and the “Induced by TSA alone?” value (S100P) was “No”. For the same molecule, the “Induced by TSA alone?” value (SALL1) was “No”, the “Induced by TSA alone?” value (SARP2) was “No” and the “Induced by TSA alone?” value (SARP2 (Table 3)) was “No”. For the same molecule, the “Induced by TSA alone?” value (SGCE) was “Yes”, the “Induced by TSA alone?” value (SMARCA1) was “No” and the “Induced by TSA alone?” value (SPANXC) was “Yes”. For the same molecule, the “Induced by TSA alone?” value (ST14) was “Yes”, the “Induced by TSA alone?” value (STAT3) was “Yes” and the “Induced by TSA alone?” value (TERT) was “No”. For the same molecule, the “Induced by TSA alone?” value (TIMP3) was “No”, the “Induced by TSA alone?” value (TJP2) was “No” and the “Induced by TSA alone?” value (TNF) was “No”. For the same molecule, the “number of the 11 genes with aberrantly methylated CpG islands whose expression was induced” value (TSA alone) was 4 genes, the “Induced by TSA alone?” value (UCHL1) was “Yes” and the “Induced by TSA alone?” value (UCHL1 (Table 3)) was “Yes”. For the same molecule, the “Induced by TSA alone?” value (WISP2) was “No”, the “Induced by TSA alone?” value (WIT-1) was “No” and the “Induced by TSA alone?” value (WNT7A) was “Yes”. For the same molecule, the “Induced by TSA alone?” value (XAGE-1) was “Yes”, the “Induced by TSA alone?” value (XAGE-1 (Table 3)) was “Yes” and the “Induced by TSA alone?” value (activity-regulated cytoskeleton-associated protein (APC)) was “Yes”. For the same molecule, the “Induced by TSA alone?” value (aik3) was “Yes”, the “Induced by TSA alone?” value (basic fibroblast growth factor (FGF)) was “Yes” and the “Induced by TSA alone?” value (cytovillin 2 (VIL2, ezrin)) was “No”. The “Induced by TSA alone?” value (granulocytemacrophage colony-stimulating factor (M11734)) was “Yes”, the “Induced by TSA alone?” value (interferon, alpha-inducible protein (NM_022873)) was “Yes” and the “Induced by TSA alone?” value (junction adhesion molecule (AF154005)) was “Yes”. For the same molecule, the “Induced by TSA alone?” value (matrix metalloproteinase 8 (MMP3)) was “No”, the “Induced by TSA alone?” value (nucleotide-binding site protein 1 (AF298547)) was “Yes” and the “Induced by TSA alone?” value (p53-induced protein (PIGII)) was “No”. The “Induced by TSA alone?” value (reprimo) was “No”, the “Induced by TSA alone?” value (stratifin (14-3-3 sigma)) was “Yes” and the “Induced by TSA alone?” value (stromal antigen 3 (STAG5)) was “Yes”. The “Induced by TSA alone?” value (synovial sarcoma, X breakpoint 2 (AF257500)) was “Yes”, the “Induced by TSA alone?” value (testin) was “Yes” and the “Induced by TSA alone?” value (transketolase-like protein (X91817)) was “Yes”.
